Molecules are shown by their SMILES.

Experiment [1] addresses Mast/stem cell growth factor receptor Kit (Homo sapiens) (UniProt P10721). Nature of the experiment: Inhibition of human c-Kit assessed as remaining enzyme activity at 1 uM.
Experiment [2] addresses RAF proto-oncogene serine/threonine-protein kinase (Homo sapiens) (UniProt P04049). In words: Inhibition of human RAF1 assessed as remaining enzyme activity at 1 uM.
Experiment [3] concerns the target Vascular endothelial growth factor receptor 2 (Homo sapiens) (UniProt P35968). Nature of the experiment: Inhibition of human VEGFR2 assessed as remaining enzyme activity at 1 uM.
In experiment [4] the target is Mitogen-activated protein kinase kinase kinase 20 (Homo sapiens) (UniProt Q9NYL2). In words: Inhibition of human ZAK assessed as remaining enzyme activity at 1 uM.
In experiment [5] the target is RAF proto-oncogene serine/threonine-protein kinase (Homo sapiens) (UniProt P04049). In words: Inhibition of human C-Raf assessed as remaining enzyme activity at 1 uM.
Chain of RAF proto-oncogene serine/threonine-protein kinase (Homo sapiens) (P04049 whole entry): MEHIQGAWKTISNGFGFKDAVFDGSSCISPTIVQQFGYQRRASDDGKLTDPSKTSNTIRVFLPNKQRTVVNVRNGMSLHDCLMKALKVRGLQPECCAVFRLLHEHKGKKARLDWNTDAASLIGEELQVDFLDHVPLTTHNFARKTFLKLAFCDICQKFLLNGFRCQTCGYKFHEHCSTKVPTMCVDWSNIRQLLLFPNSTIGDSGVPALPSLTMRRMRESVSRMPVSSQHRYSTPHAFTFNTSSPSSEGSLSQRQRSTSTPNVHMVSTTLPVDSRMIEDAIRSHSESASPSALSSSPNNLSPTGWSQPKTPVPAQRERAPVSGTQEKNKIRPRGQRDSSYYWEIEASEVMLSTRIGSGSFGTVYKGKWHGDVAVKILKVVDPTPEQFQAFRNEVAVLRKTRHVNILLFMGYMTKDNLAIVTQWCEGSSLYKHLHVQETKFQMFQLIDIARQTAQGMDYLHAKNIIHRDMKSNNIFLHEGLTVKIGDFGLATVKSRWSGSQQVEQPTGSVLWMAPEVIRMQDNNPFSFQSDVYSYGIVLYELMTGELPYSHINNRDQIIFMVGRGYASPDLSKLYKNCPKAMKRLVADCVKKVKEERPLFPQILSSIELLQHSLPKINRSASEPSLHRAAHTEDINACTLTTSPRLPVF
In experiment [6] the target is Platelet-derived growth factor receptor alpha (Homo sapiens) (UniProt P16234). In words: Inhibition of human PDGFRAlpha assessed as remaining enzyme activity at 1 uM.
The target in experiment [7] is Serine/threonine-protein kinase TAO1 (Homo sapiens) (UniProt Q7L7X3). Nature of the experiment: Inhibition of human TAO1 assessed as remaining enzyme activity at 1 uM.
Chain of Serine/threonine-protein kinase TAO1 (Homo sapiens) (Q7L7X3 whole entry): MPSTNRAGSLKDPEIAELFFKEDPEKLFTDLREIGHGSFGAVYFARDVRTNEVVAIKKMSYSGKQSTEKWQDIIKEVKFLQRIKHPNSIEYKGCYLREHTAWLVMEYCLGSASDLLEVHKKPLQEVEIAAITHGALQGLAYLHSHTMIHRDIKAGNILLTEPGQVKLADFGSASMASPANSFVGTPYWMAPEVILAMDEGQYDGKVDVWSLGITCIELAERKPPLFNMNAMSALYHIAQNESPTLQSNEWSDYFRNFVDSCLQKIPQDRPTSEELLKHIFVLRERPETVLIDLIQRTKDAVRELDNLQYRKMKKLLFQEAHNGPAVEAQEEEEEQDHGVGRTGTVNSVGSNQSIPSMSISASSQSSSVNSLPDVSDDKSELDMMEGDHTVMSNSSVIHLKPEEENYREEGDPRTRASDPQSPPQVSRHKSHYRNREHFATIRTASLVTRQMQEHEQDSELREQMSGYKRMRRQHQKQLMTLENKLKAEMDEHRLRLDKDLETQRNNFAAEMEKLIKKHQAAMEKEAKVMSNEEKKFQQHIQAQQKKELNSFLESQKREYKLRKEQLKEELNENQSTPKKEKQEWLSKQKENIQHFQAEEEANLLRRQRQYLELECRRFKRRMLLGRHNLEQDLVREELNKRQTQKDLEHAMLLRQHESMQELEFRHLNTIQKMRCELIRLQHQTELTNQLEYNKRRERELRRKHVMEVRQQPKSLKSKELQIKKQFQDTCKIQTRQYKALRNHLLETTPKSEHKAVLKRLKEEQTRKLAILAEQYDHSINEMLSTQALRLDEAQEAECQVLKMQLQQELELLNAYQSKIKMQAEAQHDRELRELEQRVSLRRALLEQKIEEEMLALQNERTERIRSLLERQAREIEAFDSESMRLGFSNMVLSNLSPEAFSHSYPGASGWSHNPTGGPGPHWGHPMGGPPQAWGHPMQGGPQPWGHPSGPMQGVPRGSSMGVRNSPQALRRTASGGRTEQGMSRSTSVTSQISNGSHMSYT
Experiment [8] has as its target Vascular endothelial growth factor receptor 3 (Homo sapiens) (UniProt P35916). In words: Inhibition of human VEGFR3 assessed as remaining enzyme activity at 0.1 uM.
Experiment [9] concerns the target Vascular endothelial growth factor receptor 2 (Homo sapiens) (UniProt P35968). Nature of the experiment: Inhibition of human VEGFR2 assessed as remaining enzyme activity at 0.1 uM.
Experiment [10] deals with T1, Homeodomain-interacting protein kinase 4 (Homo sapiens) (UniProt Q8NE63).
T1 sequence (whole entry): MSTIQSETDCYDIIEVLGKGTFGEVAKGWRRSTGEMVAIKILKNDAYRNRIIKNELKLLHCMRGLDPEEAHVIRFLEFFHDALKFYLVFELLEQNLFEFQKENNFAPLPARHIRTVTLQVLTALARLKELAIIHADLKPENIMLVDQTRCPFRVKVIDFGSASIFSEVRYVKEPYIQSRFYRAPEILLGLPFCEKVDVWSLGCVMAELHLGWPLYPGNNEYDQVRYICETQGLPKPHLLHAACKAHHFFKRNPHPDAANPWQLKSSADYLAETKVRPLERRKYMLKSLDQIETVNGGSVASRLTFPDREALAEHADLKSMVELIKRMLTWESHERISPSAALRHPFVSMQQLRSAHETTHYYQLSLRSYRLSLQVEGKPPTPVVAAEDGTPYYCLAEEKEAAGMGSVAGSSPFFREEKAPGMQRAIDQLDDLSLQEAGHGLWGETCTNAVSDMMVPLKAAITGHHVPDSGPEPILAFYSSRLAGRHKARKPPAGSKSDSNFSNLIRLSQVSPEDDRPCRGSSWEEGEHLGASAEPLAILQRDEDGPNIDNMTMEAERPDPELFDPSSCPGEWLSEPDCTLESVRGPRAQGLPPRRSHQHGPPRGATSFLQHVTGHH
Nature of the experiment: Inhibition of human HIPK4 assessed as remaining enzyme activity at 0.1 uM.

The target in experiment [11] is Mitogen-activated protein kinase kinase kinase kinase 5 (Homo sapiens) (UniProt Q9Y4K4). Nature of the experiment: Inhibition of human MAP4K5 assessed as remaining enzyme activity at 0.1 uM.
Chain of Mitogen-activated protein kinase kinase kinase kinase 5 (Homo sapiens) (Q9Y4K4 whole entry, looked up): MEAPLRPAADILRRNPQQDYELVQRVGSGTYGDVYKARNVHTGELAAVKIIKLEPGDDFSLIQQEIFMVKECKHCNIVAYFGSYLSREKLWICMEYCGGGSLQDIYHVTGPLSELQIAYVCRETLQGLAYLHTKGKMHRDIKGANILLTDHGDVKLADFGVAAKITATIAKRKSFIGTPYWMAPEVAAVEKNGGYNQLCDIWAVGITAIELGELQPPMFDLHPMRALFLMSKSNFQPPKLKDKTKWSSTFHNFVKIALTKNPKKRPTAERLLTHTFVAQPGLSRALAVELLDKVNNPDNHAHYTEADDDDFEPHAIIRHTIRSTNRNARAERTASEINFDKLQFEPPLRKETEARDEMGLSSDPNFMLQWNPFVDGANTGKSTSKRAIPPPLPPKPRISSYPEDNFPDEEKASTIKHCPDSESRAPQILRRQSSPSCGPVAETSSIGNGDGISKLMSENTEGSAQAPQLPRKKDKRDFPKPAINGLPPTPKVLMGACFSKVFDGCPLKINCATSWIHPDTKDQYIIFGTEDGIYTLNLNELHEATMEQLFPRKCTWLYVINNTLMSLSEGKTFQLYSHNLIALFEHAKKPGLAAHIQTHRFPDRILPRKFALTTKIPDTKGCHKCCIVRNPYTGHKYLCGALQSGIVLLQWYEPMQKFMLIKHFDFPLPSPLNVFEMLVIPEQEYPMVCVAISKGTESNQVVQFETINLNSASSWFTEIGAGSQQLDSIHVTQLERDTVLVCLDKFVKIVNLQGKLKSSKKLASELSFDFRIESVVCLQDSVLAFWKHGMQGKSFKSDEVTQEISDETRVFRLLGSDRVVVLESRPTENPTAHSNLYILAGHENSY
Experiment [12] deals with RAF proto-oncogene serine/threonine-protein kinase (Homo sapiens) (UniProt P04049). Nature of the experiment: Inhibition of human C-Raf assessed as remaining enzyme activity at 0.1 uM.
The target in experiment [13] is Homeodomain-interacting protein kinase 2 (Homo sapiens) (UniProt Q9H2X6). In words: Inhibition of human HIPK2 assessed as remaining enzyme activity at 0.1 uM.
The target of experiment [14] is Mitogen-activated protein kinase 14 (Homo sapiens) (UniProt Q16539). In words: Inhibition of human p38alpha assessed as remaining enzyme activity at 0.01 uM.
In experiment [15] the target is NT-3 growth factor receptor (Homo sapiens) (UniProt Q16288). In words: Inhibition of human TRKC assessed as remaining enzyme activity at 0.01 uM.
The target of experiment [16] is Tyrosine-protein kinase Lyn (Homo sapiens) (UniProt P07948). In words: Inhibition of human LYN assessed as remaining enzyme activity at 0.01 uM.
The target of experiment [17] is T2, Muscle, skeletal receptor tyrosine-protein kinase (Homo sapiens) (UniProt O15146).
T2 sequence (whole entry): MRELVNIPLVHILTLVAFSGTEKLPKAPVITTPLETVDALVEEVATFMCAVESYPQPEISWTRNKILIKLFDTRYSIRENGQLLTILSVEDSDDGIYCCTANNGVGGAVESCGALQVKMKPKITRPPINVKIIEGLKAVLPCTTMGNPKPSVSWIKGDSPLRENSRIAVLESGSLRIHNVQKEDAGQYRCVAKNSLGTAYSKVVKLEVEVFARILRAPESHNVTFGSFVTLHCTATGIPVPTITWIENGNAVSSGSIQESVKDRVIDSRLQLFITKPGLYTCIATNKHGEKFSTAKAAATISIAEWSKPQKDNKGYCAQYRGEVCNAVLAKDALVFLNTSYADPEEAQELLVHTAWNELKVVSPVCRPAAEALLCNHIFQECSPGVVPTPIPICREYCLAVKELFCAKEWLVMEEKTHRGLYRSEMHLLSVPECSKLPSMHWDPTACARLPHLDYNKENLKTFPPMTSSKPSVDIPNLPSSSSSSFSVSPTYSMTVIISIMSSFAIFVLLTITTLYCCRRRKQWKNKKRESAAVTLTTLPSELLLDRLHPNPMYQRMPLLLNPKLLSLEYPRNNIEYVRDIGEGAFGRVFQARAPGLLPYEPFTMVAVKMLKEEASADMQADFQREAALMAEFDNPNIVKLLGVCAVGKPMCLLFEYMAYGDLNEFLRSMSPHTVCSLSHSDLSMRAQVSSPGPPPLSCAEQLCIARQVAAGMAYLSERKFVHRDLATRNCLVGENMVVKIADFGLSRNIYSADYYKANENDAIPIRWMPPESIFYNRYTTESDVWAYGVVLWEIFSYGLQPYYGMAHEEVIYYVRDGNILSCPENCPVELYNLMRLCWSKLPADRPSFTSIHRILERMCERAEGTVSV
Nature of the experiment: Inhibition of human MuSK assessed as remaining enzyme activity at 0.01 uM.

Chain of Vascular endothelial growth factor receptor 2 (Homo sapiens) (P35968 whole entry): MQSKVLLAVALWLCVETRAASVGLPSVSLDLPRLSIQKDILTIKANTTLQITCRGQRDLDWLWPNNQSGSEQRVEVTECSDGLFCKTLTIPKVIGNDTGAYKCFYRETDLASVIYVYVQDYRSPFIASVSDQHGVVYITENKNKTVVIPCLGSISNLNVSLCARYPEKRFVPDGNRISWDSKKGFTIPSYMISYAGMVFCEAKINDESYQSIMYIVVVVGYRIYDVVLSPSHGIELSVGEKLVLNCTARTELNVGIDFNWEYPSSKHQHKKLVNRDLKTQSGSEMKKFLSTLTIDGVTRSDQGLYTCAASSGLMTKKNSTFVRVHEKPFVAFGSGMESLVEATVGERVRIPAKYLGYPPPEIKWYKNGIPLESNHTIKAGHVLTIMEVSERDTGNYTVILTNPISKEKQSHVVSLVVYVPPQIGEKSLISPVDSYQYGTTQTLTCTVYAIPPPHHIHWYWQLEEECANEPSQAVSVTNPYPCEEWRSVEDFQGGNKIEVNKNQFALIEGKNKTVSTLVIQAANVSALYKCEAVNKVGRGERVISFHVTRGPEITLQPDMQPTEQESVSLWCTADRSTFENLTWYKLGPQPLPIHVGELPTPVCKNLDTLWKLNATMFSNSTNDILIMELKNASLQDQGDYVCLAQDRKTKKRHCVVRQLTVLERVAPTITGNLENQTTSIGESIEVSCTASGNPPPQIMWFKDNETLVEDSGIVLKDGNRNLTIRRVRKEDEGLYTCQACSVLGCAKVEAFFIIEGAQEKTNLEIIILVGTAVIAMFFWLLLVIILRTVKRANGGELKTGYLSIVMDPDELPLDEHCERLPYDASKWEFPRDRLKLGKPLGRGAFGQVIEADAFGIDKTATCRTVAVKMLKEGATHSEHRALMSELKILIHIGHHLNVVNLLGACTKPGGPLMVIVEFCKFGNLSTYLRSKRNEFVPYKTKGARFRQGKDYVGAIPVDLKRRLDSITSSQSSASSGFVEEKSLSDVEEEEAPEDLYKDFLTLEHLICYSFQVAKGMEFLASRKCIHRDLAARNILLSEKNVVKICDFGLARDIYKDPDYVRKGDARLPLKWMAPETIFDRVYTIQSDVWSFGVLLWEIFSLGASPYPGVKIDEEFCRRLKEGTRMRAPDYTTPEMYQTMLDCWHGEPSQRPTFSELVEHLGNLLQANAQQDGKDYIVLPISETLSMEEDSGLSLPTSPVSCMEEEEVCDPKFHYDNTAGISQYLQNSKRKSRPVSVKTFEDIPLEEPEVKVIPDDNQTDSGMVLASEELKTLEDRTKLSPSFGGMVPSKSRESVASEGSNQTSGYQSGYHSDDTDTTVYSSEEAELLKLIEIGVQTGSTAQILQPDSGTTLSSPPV
Chain of Mast/stem cell growth factor receptor Kit (Homo sapiens) (P10721 whole entry): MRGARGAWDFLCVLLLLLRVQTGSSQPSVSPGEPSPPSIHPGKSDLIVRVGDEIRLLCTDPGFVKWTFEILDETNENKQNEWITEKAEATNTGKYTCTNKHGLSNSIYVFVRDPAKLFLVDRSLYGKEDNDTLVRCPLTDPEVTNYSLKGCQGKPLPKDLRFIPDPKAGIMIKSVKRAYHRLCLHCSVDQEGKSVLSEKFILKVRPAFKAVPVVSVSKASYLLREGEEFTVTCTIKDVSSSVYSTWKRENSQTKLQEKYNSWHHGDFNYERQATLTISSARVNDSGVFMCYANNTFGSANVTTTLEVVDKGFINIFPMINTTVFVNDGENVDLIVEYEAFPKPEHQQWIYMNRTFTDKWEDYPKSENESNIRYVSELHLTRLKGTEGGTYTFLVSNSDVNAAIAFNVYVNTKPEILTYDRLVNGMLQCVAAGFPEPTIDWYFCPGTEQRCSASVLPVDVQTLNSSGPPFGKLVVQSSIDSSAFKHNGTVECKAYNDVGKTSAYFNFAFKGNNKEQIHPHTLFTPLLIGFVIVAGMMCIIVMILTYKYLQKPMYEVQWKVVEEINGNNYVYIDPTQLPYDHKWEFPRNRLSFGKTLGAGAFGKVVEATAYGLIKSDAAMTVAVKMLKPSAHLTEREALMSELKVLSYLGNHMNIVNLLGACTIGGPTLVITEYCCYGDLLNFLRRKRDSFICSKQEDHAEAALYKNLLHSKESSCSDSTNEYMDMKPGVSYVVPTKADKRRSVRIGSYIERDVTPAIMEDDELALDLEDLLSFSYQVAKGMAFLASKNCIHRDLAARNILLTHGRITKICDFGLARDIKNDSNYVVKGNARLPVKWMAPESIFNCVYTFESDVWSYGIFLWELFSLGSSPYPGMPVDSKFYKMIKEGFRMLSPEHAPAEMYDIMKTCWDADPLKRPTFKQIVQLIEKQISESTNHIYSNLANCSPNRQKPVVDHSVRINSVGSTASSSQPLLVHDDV

Turning to `CNC(=O)c1cc(Oc2ccc(NC(=O)Nc3ccc(Cl)c(C(F)(F)F)c3)c(F)c2)ccn1`, the Activity in experiment [1] is -1%; in experiment [2] it was 8%; in experiment [3], 17%; in experiment [4], -1%; in [5] it was 8%; in experiment [6], 35%. For the same molecule, the Activity came to 42% in [7]; 1% in experiment [8]; 19% in experiment [9]; 3% in [10]; 37% in [11]; 57% in experiment [12]. The Activity was 61% in experiment [13]; 100% in experiment [14]; 54% in [15]; 32% in experiment [16]; 89% in [17].

Source of the values: ChEMBL document CHEMBL4725218, “Deep Learning Enhancing Kinome-Wide Polypharmacology Profiling: Model Construction and Experiment Validation” (J Med Chem, 2020).
